Activity and Percent fungal survival data for 16 compounds are collected here from PMC8815882, “Screening the pandemic response box identified benzimidazole carbamates, Olorofim and ravuconazole as promising drug candidates for the treatment of eumycetoma” (PLoS Neglected Tropical Diseases, 2022).

Structures are written as SMILES. Where two headings read alike, the source gives them in different places.

The test system of the assay is M. mycetomatis genome strain MM55. Briefly: CLSI M38-A2 based in vitro susceptibility screening (XTT or resazurin), growth at fixed concentration. Format: cell-based, Madurella mycetomatis. As to conditions: Madurella mycetomatis. A general note: Tetrazolium assays rely on reduction of a dye to a coloured formazan, in cell work by metabolically active cells.
[1] abbreviates: 25 uM, mean of three, M. mycetomatis MM55, read-out: Percentage survival at 25um, 25 uM mean.
The mark [2] stands for this setting: 25 uM, replicate A, M. mycetomatis MM55, read-out: Percentage survival at 25um, 25 um A.
Where [3] appears, read: 25 uM, replicate B, M. mycetomatis MM55, read-out: Percentage survival at 25um, 25 uM B.
Where [4] appears, read: 25 uM, replicate C, M. mycetomatis MM55, read-out: Percentage survival at 25um, 25 uM C.
Where [5] appears, read: mean of three, M. mycetomatis MM55, read-out: Percentage survival at 100um, 100 uM mean.
[6] abbreviates: replicate 1, M. mycetomatis MM55, read-out: Percentage survival at 100um, 100 uM A (first replicate column).
Where [7] appears, read: replicate 2, M. mycetomatis MM55, read-out: Percentage survival at 100um, 100 uM A (second replicate column).
Where [8] appears, read: replicate 3, M. mycetomatis MM55, read-out: Percentage survival at 100um, 100 uM A (third replicate column).
The mark [9] stands for this setting: 25 uM, mean of three replicates, read-out: Percentage survival at 25um, 25 uM mean.
The mark [10] stands for this setting: 25 uM, replicate A, read-out: Percentage survival at 25um, 25 um A.
Where [11] appears, read: 25 uM, replicate B, read-out: Percentage survival at 25um, 25 uM B.
Setting [12] is: 25 uM, replicate C, read-out: Percentage survival at 25um, 25 uM C.
[13] abbreviates: first replicate column, read-out: Percentage survival at 100um, 100 uM A.
The mark [14] stands for this setting: mean of three replicates, read-out: Percentage survival at 100um, 100 uM mean.
[15] abbreviates: second replicate column, read-out: Percentage survival at 100um, 100 uM A.
Setting [16] is: third replicate column, read-out: Percentage survival at 100um, 100 uM A.
Where [17] appears, read: replicate 1, read-out: Percentage survival at 100um, 100 uM A (first replicate column).
[18] abbreviates: replicate 2, read-out: Percentage survival at 100um, 100 uM A (second replicate column).
The mark [19] stands for this setting: replicate 3, read-out: Percentage survival at 100um, 100 uM A (third replicate column).
Where [20] appears, read: 25 uM, replicate A, MM55, read-out: Percentage survival at 25um, 25 um A.
The mark [21] stands for this setting: mean of replicates, MM55, read-out: Percentage survival at 100um, 100 uM mean.
[22] abbreviates: replicate 1, MM55, read-out: Percentage survival at 100um, 100 uM A.
Setting [23] is: replicate 2, MM55, read-out: Percentage survival at 100um, 100 uM A.
Setting [24] is: replicate 3, MM55, read-out: Percentage survival at 100um, 100 uM A.
Setting [25] is: read-out: Percentage survival at 25um, 25 uM B.
The mark [26] stands for this setting: read-out: Percentage survival at 25um, 25 uM C.
Setting [27] is: read-out: Percentage survival at 25um, 25 uM mean.
Where [28] appears, read: 25 uM, mean of replicates, MM55, read-out: Percentage survival at 25um, 25 uM mean.
Setting [29] is: 25 uM, replicate B, MM55, read-out: Percentage survival at 25um, 25 uM B.
The mark [30] stands for this setting: 25 uM, replicate C, MM55, read-out: Percentage survival at 25um, 25 uM C.

On to `CCCC(=O)OCCc1ccccc1` [MMV1578899], for which the activity at 25 µM worked out at 85.3% under setting [1], 87.9% under setting [2], 88.2% under setting [3] and 79.8% under setting [4]. In addition, the activity at 100 µM was determined as 87.4% under setting [5], 89.3% under setting [6] and 84.5% under setting [8]. Further, under setting [7], the Percent fungal survival at 100 µM stood at 88.3%.

As to `COc1cc(Cc2cnc(N)nc2N)cc(OC)c1OC` [MMV000028], the activity at 25 µM under setting [1] was 83.8%, the activity at 25 µM under setting [2] was found to be 93.1%, the activity at 25 µM under setting [3] is 86.4% and the activity at 25 µM under setting [4] was 71.8%. In addition, the activity at 100 µM stood at 77.4% under setting [5], 78.2% under setting [6], 74.4% under setting [7] and 79.6% under setting [8].

On to `OC[C@@H]1CC[C@H](n2cnc3c(O)ncnc32)O1` [MMV637306], for which the activity at 25 µM is, setting by setting: under setting [9], 91.8%; under setting [10], 101%; under setting [11], 91%; under setting [12], 83.2%. For the same compound, the activity at 100 µM was determined as 90.3% under setting [13], 87.3% under setting [14], 80.5% under setting [15] and 91.2% under setting [16].

Regarding `COc1ccc2nc(-c3ccccc3)cc(O)c2c1` [MMV011565], the activity at 25 µM is 93.4% under setting [9], 91.4% under setting [10], 96.2% under setting [11] and 92.7% under setting [12]. The activity at 100 µM under setting [14] was 78.1%, the activity at 100 µM under setting [17] was 74.5% and the activity at 100 µM under setting [19] was 79.6%. Besides, the Percent fungal survival at 100 µM under setting [18] worked out at 80.2%.

For the compound `CO[C@@]1(NC(=O)Cc2cccs2)C(=O)N2C(C(=O)O)=C(COC(N)=O)CS[C@@H]21` [MMV1578559], the activity at 25 µM runs as follows: under setting [1], 84.2%; under setting [2], 91.6%; under setting [3], 86.2%; under setting [4], 74.6%. The activity at 100 µM reads like this: under setting [5], 90.3%; under setting [6], 87.3%; under setting [8], 85.1%. The Percent fungal survival at 100 µM under setting [7] was determined as 98.4%.

On to `Nc1nc2c(Cc3cccnc3)c[nH]c2c(=O)[nH]1` [MMV1782355], for which the activity at 25 µM is, setting by setting: under setting [20], 97.7%; under setting [25], 95.7%; under setting [26], 78.5%; under setting [27], 90.6%. Also, the activity at 100 µM by setting is: under setting [21], 88.4%; under setting [22], 88.7%; under setting [23], 105%; under setting [24], 71.4%.

`CC1(C)[C@H](C(=O)O)N2C(=O)C[C@H]2S1(=O)=O` [MMV637945]: the activity at 25 µM by setting is: under setting [2], 97.1%; under setting [25], 95.1%; under setting [26], 84.6%; under setting [27], 92.3%. Moreover, the activity at 100 µM is 98.9% under setting [5], 99.5% under setting [6], 112% under setting [7] and 85.4% under setting [8].

Consider `CCN(CC)S(=O)(=O)c1ccc(Cl)c(C(=O)Nc2sc3c(c2C#N)CCCC3)c1` [MMV1634384], for which the activity at 25 µM is, setting by setting: (25 uM, mean of replicates, read-out: Percentage survival at 25um, 25 uM mean) 89.4%; under setting [10], 87.9%; under setting [11], 80.1%; under setting [12], 100%. Besides, the activity at 100 µM (mean of replicates, read-out: Percentage survival at 100um, 100 uM mean) is 89.5%; the activity at 100 µM (replicate 1, read-out: Percentage survival at 100um, 100 uM A) worked out at 89.4%; the activity at 100 µM (replicate 2, read-out: Percentage survival at 100um, 100 uM A) was found to be 89.9%; the activity at 100 µM (replicate 3, read-out: Percentage survival at 100um, 100 uM A) worked out at 89.3%.

For `OCCC#Cc1nc(-c2ccc(F)cc2)c(-c2ccncc2)n1CCCc1ccccc1` [MMV1580797], the activity at 25 µM runs as follows: under setting [9], 67.7%; under setting [10], 62%; under setting [11], 74.7%; under setting [12], 66.4%. Further, the activity at 100 µM is, setting by setting: under setting [13], 53.2%; under setting [14], 57.6%; under setting [15], 58.3%; under setting [16], 61.4%.

As for `OB1OCc2c1ccc(Cl)c2F` [MMV1782226], the activity at 25 µM reads like this: (25 uM, mean, read-out: Percentage survival at 25um, 25 uM mean) 54.9%; under setting [10], 54.6%; under setting [11], 46.9%; under setting [12], 63.1%. Moreover, the activity at 100 µM was 64.2% (mean, read-out: Percentage survival at 100um, 100 uM mean); 55.3% (replicate (first column), read-out: Percentage survival at 100um, 100 uM A); 77.4% (replicate (second column), read-out: Percentage survival at 100um, 100 uM A); 59.8% (replicate (third column), read-out: Percentage survival at 100um, 100 uM A).

For `N[C@H](CCC(=O)N[C@@H](Cc1c[nH]c2ccccc12)C(=O)O)C(=O)O` [MMV1581033], the activity at 25 µM came out at 91% under setting [28], 91.2% under setting [20], 94.6% under setting [29] and 87.2% under setting [30]. The activity at 100 µM under setting [21] is 66.8%, the activity at 100 µM under setting [22] amounted to 84.1%, the activity at 100 µM under setting [23] amounted to 28.6% and the activity at 100 µM under setting [24] is 87.7%.

Regarding `CCOCc1nc2c(N)nc3ccccc3c2n1CC(C)(C)O` [MMV690547], the activity at 25 µM is, setting by setting: under setting [9], 98%; under setting [10], 95.3%; under setting [11], 111%; under setting [12], 87.7%. In addition, the activity at 100 µM under setting [14] stood at 90.4%, the activity at 100 µM under setting [17] is 97% and the activity at 100 µM under setting [19] came out at 87.9%. Further, the Percent fungal survival at 100 µM under setting [18] is 86.2%.

For the compound `Cn1cncc1[C@@](N)(c1ccc(Cl)cc1)c1ccc2c(c1)c(-c1cccc(Cl)c1)cc(=O)n2C` [MMV658803], the activity at 25 µM runs as follows: under setting [28], 43.8%; under setting [20], 0.79%; under setting [29], 64.2%; under setting [30], 66.2%. Moreover, the activity at 100 µM under setting [21] amounted to 36.3%, the activity at 100 µM under setting [22] was 13.3%, the activity at 100 µM under setting [23] was 45% and the activity at 100 µM under setting [24] came out at 50.7%.

In the case of `CCNC(=O)Nc1cn2c(-c3ncc(CC)cn3)cc(-c3cccnc3)cc2n1` [MMV1782403], the activity at 25 µM runs as follows: under setting [9], 109%; under setting [10], 109%; under setting [11], 132%; under setting [12], 85.2%. In addition, the activity at 100 µM is, setting by setting: under setting [14], 84.3%; under setting [17], 77.2%; under setting [19], 96.3%. For the same compound, the Percent fungal survival at 100 µM under setting [18] was determined as 79.4%.

`C[C@H](NC(CC(=O)c1ccccc1C(F)(F)F)C(=O)O)c1ccccc1` (some centres unmarked) [MMV1579778]: the activity at 25 µM by setting is: under setting [9], 93.5%; under setting [10], 98.1%; under setting [11], 92%; under setting [12], 90.5%. Besides, the activity at 100 µM is, setting by setting: under setting [14], 87.3%; under setting [17], 91.1%; under setting [19], 88.1%. In addition, the Percent fungal survival at 100 µM under setting [18] was 82.8%.

As for `CCCCN1C[C@H](O)[C@@H](O)[C@H](O)[C@H]1CO` [MMV1782098], the activity at 25 µM under setting [28] was determined as 95.7%, the activity at 25 µM under setting [20] stood at 96.4%, the activity at 25 µM under setting [29] amounted to 111% and the activity at 25 µM under setting [30] was found to be 79.8%. Besides, the activity at 100 µM is, setting by setting: under setting [21], 68%; under setting [22], 94.4%; under setting [23], 27.4%; under setting [24], 82.2%.
